Results reported in EP3442964B1, “NOVEL N-[(PYRIMIDINYLAMINO)PROPANYL]-AND N [(PYRAZINYLAMINO)PROPANYL]ARYLCARBOXAMIDES” (Boehringer Ingelheim International GmbH, priority 2016, dated 2017).
Where two headings read alike, the source gives them in different places.

Experiments:
OX2R [1] = target: T1, OX2R (Homo sapiens, UniProt O43614); settings: as described in WO2013/187466; agonist 3 nM modified orexin A; cited from earlier work
T1 sequence (O43614 1-444): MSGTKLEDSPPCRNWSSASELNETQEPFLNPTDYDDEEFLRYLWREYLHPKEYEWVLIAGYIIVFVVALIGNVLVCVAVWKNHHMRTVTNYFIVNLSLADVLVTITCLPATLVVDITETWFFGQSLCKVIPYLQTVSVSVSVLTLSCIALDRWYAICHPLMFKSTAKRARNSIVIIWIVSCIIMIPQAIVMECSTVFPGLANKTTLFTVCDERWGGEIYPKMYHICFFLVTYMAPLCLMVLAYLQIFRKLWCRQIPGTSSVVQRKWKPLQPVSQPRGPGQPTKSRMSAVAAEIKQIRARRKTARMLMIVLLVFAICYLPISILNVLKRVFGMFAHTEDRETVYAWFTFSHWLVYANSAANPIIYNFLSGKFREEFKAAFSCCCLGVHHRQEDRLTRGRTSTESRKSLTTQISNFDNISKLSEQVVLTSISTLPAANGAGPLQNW

[2] = Assay C: metabolic stability in human liver microsomes (human MST); type: in vitro ADME; settings: pooled human liver microsomes, pH 7.6, 1 µM test compound, 37°C
Description: Stability in human liver microsomes refers to the susceptibility of compounds to biotransformation in the context of selecting and/or designing drugs with favorable pharmacokinetic properties. The primary site of metabolism for many drugs is the liver. Human liver microsomes contain the cytochrome P450s (CYPs), and thus represent a model system for studying drug metabolization in vitro. Enhanced stability in human liver microsomes is associated with several advantages, including increased bioavailability and longer half-life, which can enable lower and less frequent dosing of patients. Thus, enhanced stability in human liver microsomes is a favorable characteristic for compounds that are to be used for drugs.
The metabolic stability of the compounds according to the invention may be investigated as follows: The metabolic degradation of the test compound is assayed at 37°C with pooled human liver microsomes. The final incubation volume of 100 µL per time point contains TRIS buffer pH 7.6 at room temperature (0.1 M), MgCl2 (5 mM), microsomal protein (1 mg/mL) and the test compound at a final concentration of 1 µM. Following a short pre-incubation period at 37°C , the reactions are initiated by addition of beta-nicotinamide adenine dinucleotide phosphate, reduced form (NADPH, 1 mM), and terminated by transferring an aliquot into solvent after different time points. After centrifugation (10000 g, 5 min), an aliquot of the supernatant is assayed by LC-MS/MS for the amount of parent compound. The half-life (t1/2) is determined by the slope of the semi-logarithmic plot of the concentration-time profile.

human MDR1 P-gp = target: T2, human MDR1 P-gp (Homo sapiens, UniProt P08183); test: Assay D: efflux in MDCK cells transfected with the human MDR1 gene; type: in vitro ADME; settings: MDCK-MDR1 monolayers, pH 7.4, 37°C, read-out: Assay D:MDCK efflux ratio (BA/AB)
T2 construct: expressed in transfected cells; host or cells: MDCK (MDCK-MDR1)
T2 sequence (P08183 whole entry): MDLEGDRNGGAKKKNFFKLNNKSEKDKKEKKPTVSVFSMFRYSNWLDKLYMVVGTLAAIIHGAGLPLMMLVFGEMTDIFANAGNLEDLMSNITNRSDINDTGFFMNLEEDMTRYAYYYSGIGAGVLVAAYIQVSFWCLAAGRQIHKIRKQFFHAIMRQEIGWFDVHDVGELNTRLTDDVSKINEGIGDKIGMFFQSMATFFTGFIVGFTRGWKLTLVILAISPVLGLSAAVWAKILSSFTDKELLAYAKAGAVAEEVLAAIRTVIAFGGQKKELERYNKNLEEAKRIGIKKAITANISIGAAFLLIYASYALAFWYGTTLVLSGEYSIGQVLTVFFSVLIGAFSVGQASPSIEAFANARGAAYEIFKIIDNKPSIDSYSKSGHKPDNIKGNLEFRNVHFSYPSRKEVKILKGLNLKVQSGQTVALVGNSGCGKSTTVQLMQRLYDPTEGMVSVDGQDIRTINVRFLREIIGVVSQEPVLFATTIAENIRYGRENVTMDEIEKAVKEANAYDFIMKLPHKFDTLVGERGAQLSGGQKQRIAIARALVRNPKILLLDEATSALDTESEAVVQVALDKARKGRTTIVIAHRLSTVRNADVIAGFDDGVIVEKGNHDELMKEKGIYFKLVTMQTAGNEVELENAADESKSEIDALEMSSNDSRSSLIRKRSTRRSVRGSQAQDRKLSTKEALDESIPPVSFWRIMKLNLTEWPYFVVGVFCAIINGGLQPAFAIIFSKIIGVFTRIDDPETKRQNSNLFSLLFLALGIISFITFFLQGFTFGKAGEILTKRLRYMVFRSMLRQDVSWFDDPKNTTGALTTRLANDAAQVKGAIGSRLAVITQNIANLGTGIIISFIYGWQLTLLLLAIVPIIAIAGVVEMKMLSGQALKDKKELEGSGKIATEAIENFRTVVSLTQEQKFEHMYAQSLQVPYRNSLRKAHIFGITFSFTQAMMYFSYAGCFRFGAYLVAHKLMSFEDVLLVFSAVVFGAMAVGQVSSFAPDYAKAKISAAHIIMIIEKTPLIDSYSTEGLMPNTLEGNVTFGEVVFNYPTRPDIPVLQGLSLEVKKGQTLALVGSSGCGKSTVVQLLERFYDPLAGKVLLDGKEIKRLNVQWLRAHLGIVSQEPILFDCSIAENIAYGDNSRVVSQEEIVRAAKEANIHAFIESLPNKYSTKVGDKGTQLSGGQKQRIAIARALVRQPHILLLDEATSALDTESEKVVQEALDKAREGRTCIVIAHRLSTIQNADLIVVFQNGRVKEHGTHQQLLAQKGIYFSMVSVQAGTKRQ
Protocol: The MDCK assay provides information on the potential of a compound to pass the blood brain barrier. Permeability measurements across polarized, confluent MDCK-MDR1 cell monolayers grown on permeable filter supports are used as an in vitro absorption model: apparent permeability coefficients (PE) of the compounds across the MDCK-MDR1 cell monolayers are measured (pH 7.4, 37°C) in apical-to-basal (AB) and basal-to-apical (BA) transport direction. The AB permeability (PEAB) represents drug absorption from the blood into the brain and the BA permeability (PEBA) drug efflux from the brain back into the blood via both, passive permeability as well as active transport mechanisms mediated by efflux and uptake transporters that are expressed on the MDCK-MDR1 cells, predominantly by the overexpressed human MDR1 P-gp. Identical or similar permeabilities in both transport directions indicate passive permeation, vectorial permeability points to additional active transport mechanisms. Higher PEBA than PEAB (PEBA/PEAB > 5) indicates the involvement of active efflux mediated by MDR1 P-gp, which might compromises the goal to achieve sufficient brain exposure. Therefore this assay provides valuable support for selection of compounds applicable for further in vivo testing. High permeability not limited by efflux at the blood brain barrier is a favourable characteristic for compounds that are to be used for drugs acting primarily in the CNS
Apparent permeability coefficients (PE) of the compounds across the MDCK-MDR1 cell monolayers are measured (pH 7.4, 37°C) in apical-to-basal (AB) and basal-to-apical (BA) transport direction. AB permeability (PEAB) represents drug absorption from the blood into the brain and BA permeability (PEBA) drug efflux from the brain back into the blood via both passive permeability as well as active transport mechanisms mediated by efflux and uptake transporters that are expressed on the MDCK-MDR1 cells, predominantly by the overexpressed human MDR1 P-gp. The compounds are assigned to permeability/absorption classes by comparison of the AB permeabilities with the AB permeabilities of reference compounds with known in vitro permeability and oral absorption in the human. Identical or similar permeabilities in both transport directions indicate passive permeation, vectorial permeability points to additional active transport mechanisms. Higher PEBA than PEAB indicates the involvement of active efflux mediated by MDR1 P-gp. Active transport is concentration- dependently saturable.
MDCK-MDR1 cells (1-2 x 10e5 cells/1 cm2 area) are seeded on filter inserts (Costar transwell polycarbonate or PET filters, 0.4 µm pore size) and cultured (DMEM) for 7 days. Subsequently, the MDR1 expression is boosted by culturing the cells with 5 mM sodium butyrate in full medium for 2 days. Compounds are dissolved in appropriate solvent (like DMSO, 1 -20 mM stock solutions). Stock solutions are diluted with HTP-4 buffer (128.13 mM NaCl, 5.36 mM KCI, 1 mM MgSO4, 1.8 mM CaCl2, 4.17 mM NaHCO3, 1.19 mM Na2HPO4 x 7H2O, 0.41 mM NaH2PO4xH2O, 15 mM HEPES, 20 mM glucose, 0.25 % BSA, pH 7.4) to prepare the transport solutions (0.1 - 300 µM compound, final DMSO <= 0.5 %). The transport solution (TL) is applied to the apical or basolateral donor side for measuring A-B or B-A permeability (3 filter replicates), respectively. The receiver side contains the same buffer as the donor side. Samples are collected at the start and end of experiment from the donor and at various time intervals for up to 2 hours also from the receiver side for concentration measurement by HPLC-MS/MS or scintillation counting. Sampled receiver volumes are replaced with fresh receiver solution.

OX1R [3] = target: T3, OX1R (Homo sapiens, UniProt O43613); settings: cited from earlier work
T3 sequence (O43613 1-425): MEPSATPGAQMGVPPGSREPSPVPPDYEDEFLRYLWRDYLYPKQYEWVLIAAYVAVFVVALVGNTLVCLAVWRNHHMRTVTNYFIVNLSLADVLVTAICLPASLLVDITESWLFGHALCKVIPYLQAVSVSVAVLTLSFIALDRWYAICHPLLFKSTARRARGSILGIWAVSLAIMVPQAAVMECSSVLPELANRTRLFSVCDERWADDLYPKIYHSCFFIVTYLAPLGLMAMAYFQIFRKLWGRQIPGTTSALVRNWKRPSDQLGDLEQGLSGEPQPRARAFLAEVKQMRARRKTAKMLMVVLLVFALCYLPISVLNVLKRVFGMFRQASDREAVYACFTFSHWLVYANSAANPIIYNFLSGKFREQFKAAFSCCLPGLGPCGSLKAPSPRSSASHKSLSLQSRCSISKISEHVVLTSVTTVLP

human orexin 2 receptor = target: T4, human orexin 2 receptor (Homo sapiens, UniProt O43614); type: cell-based; settings: 0.5 nM Orexin A
T4 sequence (O43614 1-444): T1 sequence (O43614 1-444)
Description: Chem. Genomics 2009, 3, 22-32.

OX1R [4] = target: T3, OX1R; test: OX1R assay as described in WO2016/034882
OX2R [5] = target: T1, OX2R; settings: cited from earlier work
[6] = read-out: Assay C: Human MST t1/2
[7] = corresponds to pIC50 of Table 3 of WO2016/034882
[8] = from values of Table 3 of WO2016/034882
[9] = corresponds to pIC50 of Table 1 of WO2016/034882

Structure (SMILES): C[C@@H](Cn1ccc(-c2ccc(F)cn2)n1)N(C)C(=O)c1cc(F)ccc1-c1ncccn1 [Example 5 in WO2013/187466, reference compound]
- IC50 (OX2R [1]): 76 nM
- half-life at 1 µM ([2]; read-out: Data as determined in Assay C: Human MST t1/2): 30 min

Structure (SMILES): CC[C@@H](CNc1ncc(C(F)(F)F)cn1)N(C)C(=O)c1nc(C)ccc1-n1cccn1 [Example 90 in WO2016/034882]
- efflux ratio (human MDR1 P-gp): < 3
- half-life at 1 µM [2, 6]: 26 min
- IC50 (OX1R [3]; [7]): 1.9 nM
- Kb (human orexin 2 receptor): 974 nM
- OX2R IC50/OX1R IC50 (OX1R [4]; [8]): Table 3: >526
- OX2R pIC50 (OX2R [5]; Table 3 of WO2016/034882): < 6.0
- IC50 (OX2R [5]; [7]): > 1000 nM

Structure (SMILES): CC[C@@H](CNc1ncc(C(F)(F)F)cn1)N(C)C(=O)c1nc(C)ccc1-n1nccn1 [Example 46 in WO2016/034882]
- efflux ratio (human MDR1 P-gp): < 3
- half-life at 1 µM [2, 6]: 32 min
- IC50 (OX1R [3]; [9]): 20 nM
- OX2R pIC50 (OX2R [5]; Table 1 of WO2016/034882): 5.1
- OX2R pIC50 (OX2R [5]; Table 2 of WO2016/034882): < 5.0
- OX2R pIC50 (OX2R [5]; Table 3 of WO2016/034882): < 5.0
- IC50 (OX2R [5]; corresponds to pIC50 of Table 2 of WO2016/034882): > 10000 nM
- IC50 (OX2R [5]; [7]): ≥ 10000 nM

Structure (SMILES): CC[C@@H](CNc1cnc(C(F)(F)F)cn1)N(C)C(=O)c1cc(Cl)ccc1-n1nccn1 [Example 40 in WO2016/034882]
- efflux ratio (human MDR1 P-gp): < 3
- half-life at 1 µM [2, 6]: 9 min
- IC50 (OX1R [3]; [9]): 16 nM
- OX2R IC50/OX1R IC50 (OX1R [4]; from values of Table 1 of WO2016/034882): Table 1: 156
- IC50 (OX2R [5]; [9]): 2500 nM

Structure (SMILES): CC[C@@H](CNc1ncc(C(F)(F)F)cn1)N(C)C(=O)c1c(F)cccc1-n1nccn1 [Example 91 in WO2016/034882]
- efflux ratio (human MDR1 P-gp): < 3
- half-life at 1 µM [2, 6]: > 120 min
- IC50 (OX1R [3]; [7]): 25 nM
- OX2R IC50/OX1R IC50 (OX1R [4]; [8]): Table 3: 318
- OX2R pIC50 (OX2R [5]; Table 3 of WO2016/034882): < 5.1
- IC50 (OX2R [5]; [7]): ≥ 7950 nM
